Assay results from patent US8338622B2, “Heterocyclic compound” (Takeda Pharmaceutical Company Limited, priority 2008, dated 2012).

Experiments:
[1] = target: T1, human RBP4 (Homo sapiens, UniProt P02753); test: Binding assay by Retinol-RBP4-TTR ELISA (human type ELISA); settings: retinol 0.5 μM, read-out: human RBP4 binding inhibitory activity (IC50 nM)
T1 construct: the culture supernatant containing secreted/expressed hRBP4-His was recovered; His tag (His6, read from the HISENU oligo); made in house; host or cells: FreeStyle293 expression system (Invitrogen), secreted into the culture supernatant
Protocol: The action of the compound of the present invention to inhibit the binding between RBP4, and retinol and TTR was evaluated using the Retinol-RBP4-TTR ELISA (human type ELISA) system shown below.
The binding assay was performed by an ELISA system (Retinol-RBP4-TTR ELISA) for detecting retinol-RBP4-TTR conjugate by streptavidin-biotin reaction.
His-tagged human RBP4 used was prepared in the above-mentioned 1C.
Biotinylated human TTR used was prepared in the above-mentioned 1E.
Streptavidin (20 μl) (10 μg/ml Streptavidin type II (Wako Pure Chemical Industries, Ltd.), 10 mM Tris-HCl (pH 7.5), 10 mM NaCl) was added to a 384 well black maxisorp plate (Nunc), and the plate was subjected to centrifugation (1000 rpm, 1 min) and coated overnight at 4° C. The plate was washed twice with PBST (PBS, 0.05% Tween 20, 100 μl/well) and blocked with 25% Block Ace (Snow Brand Milk Products Co., Ltd., PBS, 100 μl/well). The plate was subjected to centrifugation (1000 rpm, 1 min) and incubated at room temperature for 4 hr or overnight at 4° C. The plate was washed twice with PBST (PBS, 0.05% Tween 20, 100 μl/well), and biotinylated human TTR (stock solution concentration 1.3 mg/ml) diluted 1000-fold with PBST was added at 20 μl/well. The plate was subjected to centrifugation (1000 rpm, 1 min) and stood still at room temperature for 1.5 hr or overnight at 4° C. The plate was washed 3 times with PEST (100 μl/well), and His-tagged human RBP4 (stock solution concentration 0.96 mg/ml) diluted 4000-fold with a reaction buffer (50 mM Tris-HCl, 150 mM NaCl, 0.005% Tween 20, 1 mM DTT, 0.1% BSA) was added at 10 μl/well. The dilution series (8 doses from 10 mM, 200-fold concentration) of the compound was prepared with DMSO, and 1 μl of each was added to a reaction buffer (200 μl) containing retinol (0.5 μM) (Sigma-Aldrich Co.). A reaction buffer (200 μl) containing retinol and added with DMSO was used as a positive control, and reaction buffer (200 μl) free of retinol and added with DMSO was used as a negative control. Mixed solutions of retinol and the compound were added to the plate at 15 μl/well. The mixture was stirred in a platemixer, subjected to centrifugation (1000 rpm, 1 min) and reacted at room temperature for 2 hr. A 35% Block Ace solution diluted with the reaction buffer was added at 10 μl/well, centrifuged (1000 rpm, 1 min) and reacted at room temperature for 30 min. The plate was washed 3 times with PBST (100 μl/well) and SuperSignal ELISA Femto Maximum Sensitivity Substrate reagent (PIERCE) was added at 30 μl/well, and the luminescence was measured by a platereader (Wallac).
The binding activity rate of the compound was determined by 100×(test compound value−negative control value)/(positive control value−negative control value). The binding inhibitory activity (IC50) was calculated from the binding activity rate at each compound concentration using a graph drawing software, Prism (GraphPad Software Inc.).

[2] = target: T2, RBP4 (Mus musculus, UniProt Q00724); test: Blood RBP4 lowering action in C57BL/6J mouse, single oral administration; format: in vivo; settings: plasma, mean±SD n=5; for RBP4 (% of initial/Control) 0 hr later: 0 hr value before administration, 50 mg/kg oral; for RBP4 (% of initial/Control) 4 hr later: 4 hr after 50 mg/kg oral; for RBP4 (% of initial/Control) 7 hr later: 7 hr after 50 mg/kg oral; for RBP4 (% of initial/Control) 24 hr later: 24 hr after 50 mg/kg oral
T2 construct: from tissue; host or cells: plasma of male C57BL/6J mice (Charles River Laboratories Japan Inc.)
Protocol: A blood RBP4 lowering action of the compound of the present invention was evaluated using C57BL/6J mouse.
Male 7- to 15-week-old C57BL/6J mice (Charles River Laboratories Japan Inc.) were individually bred for acclimation for 4-6 days under conditions with free access to CE-2 solid food (CLEA Japan, Inc.), and grouped based on the body weight (5 per group). The next day of grouping, blood samples were collected from the orbital venous plexus, and plasma was separated (0 hr value). Thereafter, the test compounds (Examples 1, 13, 15, 16, 17, 27 and 34) were orally administered at a dose of 50 mg/kg (solvent: 0.5% methylcellulose solution (10 mL/kg)). At 4, 7 and 24 hr after administration of the compounds, blood samples were collected from the orbital venous plexus, and plasma was separated. A 0.5% methylcellulose solution (10 mL/kg) was orally administered to the control group.
The RBP4 level of the collected plasma was measured by ELISA. RBP4 was quantified by the following steps using a rabbit, anti-mouse RBP4 polyclonal antibody (Hokudo Co., Ltd). A 96 well ELISA plate was coated with 50 μg/ml of the antibody (100 μL) and stood at 4° C. overnight. After blocking with BlockAce (DAINIPPON PHARMACEUTICAL CO., LTD.), mouse RBP4 or a sample (100 μL) was added and the plate was stood at room temperature for 2 hr. After washing with PBS-0.5% Tween 20, HRP-labeled anti-RBP4 antibody (prepared by labeling RBP4 polyclonal antibody (Hokudo Co., Ltd) with HRP (DOJINDO LABORATORIES)) was added by 100 μL, and the plate was stood at room temperature for 1 hr. After washing, TMB (Dako Cytomations) was added, and the mixture was stood at room temperature for 20 min to allow color development, and the reaction was quenched with 2N sulfuric acid. Thereafter, the absorbance at A450 nm was measured on a platereader. The amount of change from the initial value of each animal was determined as a relative value from the control group (% of initial/Control) at each time point. The results are shown in the following in mean±standard deviation (n=5).

[3] = tested on: Zucker fa/fa rats; test: Hypoglycemic action in Zucker fa/fa rats (Experimental Example 4A); format: in vivo, rat; settings: 30 mg/kg oral for 2 weeks
Protocol: A hypoglycemic action of the compound of the present invention was evaluated using Zucker fa/fa rats.
Male 19-week-old Zucker fa/fa rats (Takeda Pharmaceutical Company Limited) were bred in group on CE-2 solid food (CLEA Japan, Inc.) until 12-week-old, thereafter bred on high-fat diet D06110702 (LSG Corporation) for acclimation under conditions with free access to food. At 19-week-old, the rats were grouped based on the body weight, blood glucose level, glycated hemoglobin level and blood RBP4 level value (6 per group). Thereafter, the test compound (Example 34) was orally administered at a dose of 30 mg/kg (solvent: 0.5% methylcellulose solution (5 mL/kg)) for 2 weeks. After 24 hr of the final administration of the compound, blood samples were collected from the tail vein, and plasma was separated. Using the collected plasma, (1) RBP4 concentration, (2) glycated hemoglobin level and (3) blood glucose level were measured. (1) was quantified according to the protocol described in Experimental Example 3. (2) was measured using Tosoh Corporation automatic glycohemoglobin analyzer (HLC-723 GHbV A1c2.2 or HLC-723G7 GHbV A1c2.2), and (3) was measured using Hitachi full-automatic analyzer (7070 or 7080), respectively.
A 0.5% methylcellulose solution (5 mL/kg) was orally administered to the control group. […] The results are shown in the following in mean±standard deviation (n=6). In the following Table, glycated hemoglobin change is obtained by subtracting the value before administration from that after administration.

SMILES	IC50 [1] [nM]	RBP4 (% of initial/Control) 0 hr later [2]	RBP4 (% of initial/Control) 4 hr later [2]	RBP4 (% of initial/Control) 7 hr later [2]	RBP4 (% of initial/Control) 24 hr later [2]	further results
O=C(O)CCC1CCC(c2cc(C(F)(F)F)cc(C(F)(F)F)c2)O1 (racemic) [Example 34, 3-{5-[3,5-bis(trifluoromethyl)phenyl]tetrahydrofuran-2-yl}propanoic acid]	26	100.0 ± 5.6 % of initial/Control	37.4 ± 2.4 % of initial/Control	34.8 ± 2.6 % of initial/Control	107.4 ± 15.3 % of initial/Control	blood RBP4 concentration (in words) [3]: significant decrease; blood glucose level (in words) [3]: significant decrease; glycated hemoglobin change (in words) [3]: significant decrease; blood glucose level ([3]; 24 hr after final administration, mean±SD n=6): 157.2 ± 50.6 mg/dL; glycated hemoglobin change (%) ([3]; value after minus before administration, mean±SD n=6): −1.72 ± 0.52%; RBP4 ([3]; plasma, 24 hr after final administration, mean±SD n=6): 5.2 ± 0.2 µg/mL
O=C(O)CSC1CCN(c2cc(C(F)(F)F)cc(C(F)(F)F)c2)C1 (single isomer, unassigned) [Example 10, ({1-[3,5-bis(trifluoromethyl)phenyl]pyrrolidin-3-yl}sulfanyl)acetic acid]	27					
O=C(O)CSC1CCN(c2cc(C(F)(F)F)cc(C(F)(F)F)c2)C1 (single isomer, unassigned) [Example 11, ({1-[3,5-bis(trifluoromethyl)phenyl]pyrrolidin-3-yl}sulfanyl)acetic acid]	13					
O=C(O)CSC1CCN(c2cc(C(F)(F)F)cc(C(F)(F)F)c2)C1 (stereo not shown) [Example 1, ({1-[3,5-bis(trifluoromethyl)phenyl]pyrrolidin-3-yl}sulfanyl)acetic acid]	45	100 ± 20.2 % of initial/Control	42.5 ± 3.3 % of initial/Control	36.0 ± 3.2 % of initial/Control	73.8 ± 19.3 % of initial/Control	
O=C(O)C[S+]([O-])C1CCN(c2cc(C(F)(F)F)cc(C(F)(F)F)c2)C1 (stereo not shown) [Example 2, ({1-[3,5-bis(trifluoromethyl)phenyl]pyrrolidin-3-yl}sulfinyl)acetic acid]	38					
O=C(O)CCC1CCN(c2ccc(Cl)c(C(F)(F)F)c2)C1 (stereo not shown) [Example 13, 3-{1-[4-chloro-3-(trifluoromethyl)phenyl]pyrrolidin-3-yl}propanoic acid]	26	100.0 ± 10.9 % of initial/Control	54.5 ± 1.2 % of initial/Control	56.5 ± 2.5 % of initial/Control	106.6 ± 3.9 % of initial/Control	
O=C(O)CCC1CCN(c2cccc(C(F)(F)F)c2Cl)C1 (stereo not shown) [Example 14, 3-{1-[2-chloro-3-(trifluoromethyl)phenyl]pyrrolidin-3-yl}propanoic acid]	39					
O=C(O)CCN1CCN(c2cc(C(F)(F)F)cc(C(F)(F)F)c2)C1=O [Example 15, 3-{3-[3,5-bis(trifluoromethyl)phenyl]-2-oxoimidazolidin-1-yl}propanoic acid]	320	100.0 ± 4.4 % of initial/Control	51.0 ± 1.4 % of initial/Control	49.0 ± 1.1 % of initial/Control	58.2 ± 2.7 % of initial/Control	
O=C(O)COC1CCN(c2ccc(Cl)c(C(F)(F)F)c2)C1 (stereo not shown) [Example 27, calcium ({1-[4-chloro-3-(trifluoromethyl)phenyl]pyrrolidin-3-yl}oxy)acetate]	140	100.0 ± 2.1 % of initial/Control	56.2 ± 1.7 % of initial/Control	56.0 ± 1.6 % of initial/Control	59.6 ± 2.1 % of initial/Control	
O=C(O)CN1CC(c2cc(C(F)(F)F)cc(C(F)(F)F)c2)CC1=O (stereo not shown) [Example 48, {4-[3,5-bis(trifluoromethyl)phenyl]-2-oxopyrrolidin-1-yl}acetic acid]	210					
O=C(O)CCSC1CCN(c2cc(C(F)(F)F)cc(C(F)(F)F)c2)C1 (stereo not shown) [Example 50, 3-({1-[3,5-bis(trifluoromethyl)phenyl]pyrrolidin-3-yl}sulfanyl)propanoic acid]	81					
